Test results: US10537102B2, “Synergistic fungicidal composition for controlling plant diseases” (Sumitomo Chemical Company, Limited, priority 2016, dated 2020)

How the values were obtained:
[1] = tested on: Brown rust (Puccinia recondita); assay: Test Example 4: foliar spray on wheat, Brown rust lesion area; type: in vivo, Puccinia recondita on wheat (cultivar. Shirogane); details: single use, flowable, foliar spray one day before inoculation
Method: Five (5) parts of the present compound 1-3, 35 parts of a mixture of white carbon and ammonium polyoxyethylene alkyl ether sulfate (the weight ratio of 1:1) and […] of water were mixed, and the mixture was then finely-ground by a wet grinding method to obtain a flowable comprising the present compound 1-3. Separately, the flowable comprising the present compound 2 was prepared according to the above-mentioned similar method except that the […].
Each of the flowable comprising the present compound 1-3 and the flowable comprising the present compound 2 was diluted with water and if necessary, the resultant dilute solutions were mixed each other such that each concentration of the respective compounds in the dilution solution was adjusted to the concentration indicated in Table 4, to prepare the dilution solutions, respectively.
A plastic pot was filled with soil, and thereto wheat (cultivar. Shirogane) was seeded, and the plants were grown in a greenhouse for ten days. The above-mentioned dilution solutions were sprayed to foliar parts so as to adhere adequately onto the surfaces of leaves of the above wheats. After spraying the dilute solution, the plants were air-dried, and one day after the application, an aqueous suspension of uredospores of Brown rust (Puccinia recondita) was inoculated by spraying thereto. After the inoculation, the plants were placed at 27° C. under humid condition for one day, and were then cultivated under lighting for ten days, and a lesion area was examined (hereinafter referred to as “lesion area of treated group”).
Whereas, wheats were cultivated similarly to the treated group except that no foliage application of the above-mentioned agent solution was done, and Brown rust were inoculated, and the lesion area thereof was examined (hereinafter referred to as “lesion area of the untreated group”).
From each of the lesion area of the treated group and the untreated group, respectively, the efficacy of the treated group was calculated by the following Equation 2.
Efficacy (%)=[1−(lesion area of the treated group)/(lesion area of the untreated group)]×100 Equation 2

[2] = tested on: Septoria leaf blotch (Mycosphaerella graminicola); assay: Test Example 3: growth of Septoria leaf blotch in YBG medium, microtiter plate, absorbance at 550 nm; type: cell-based; details: single use, 18° C., four days
Method: Each of the present compound 1-3 or the present compound 2 was dissolved into dimethyl sulfoxide such that each concentration of these compounds was adjusted to one hundred fifty times as much as the concentration indicated in the below-mentioned Table 3. The resultant agent solution was dispensed into each microtiter plate (with 96 wells) in 1 μl portion thereof per well. 149 μl of YBG medium to which conidia of Septoria leaf blotch (Mycosphaerella graminicola) was inoculated in advance (which was prepared by dissolving 10 g of yeast extract, 10 g of Bacto Peptone, and 20 mL of glycerol into 1 L of water, followed by sterilizing the medium) was dispensed into each of the well to which the agent solution was dispensed. The plate was cultivated at 18° C. for four days, thereby allowing Septoria leaf blotch (Mycosphaerella graminicola) to undergo proliferation, and the absorbance at 550 nm of each well of the microtiter plate was then measured to examine a degree of growth of Septoria leaf blotch (hereinafter referred to as “treated group”).
Whereas, Septoria leaf blotch was proliferated similarly to the case of the treated group except that dimethyl sulfoxide was used instead of the agent solution, and the degree of the growth was examined (hereinafter referred to as “untreated group”). The efficacy was calculated from each of the obtained degree of growth of the treated group and the untreated group respectively by the following “Equation 1”.
Efficacy (%)=100×(X−Y)/X Equation 1
X: Degree of growth of fungus in the untreated group
Y: Degree of growth of fungus in the treated group

| Structure (SMILES) | Efficacy (%) ([1]; concentration in agent solution 0.001 ppm) | Efficacy (%) ([1]; concentration in agent solution 0.02 ppm) | Efficacy (%) ([2]; concentration in medium 0.001 ppm) | Efficacy (%) ([1]; concentration in agent solution 0.002 ppm) | Efficacy (%) ([1]; concentration in agent solution 0.01 ppm) | Efficacy (%) ([2]; concentration in medium 0.0001 ppm) | Efficacy (%) ([2]; concentration in medium 0.01 ppm) |
| --- | --- | --- | --- | --- | --- | --- | --- |
| CC1CC(C)(C)c2c(F)ccc(NC(=O)c3cn(C)nc3C(F)F)c21 (stereo not shown) [Present compound 2] | 15% | 55% | 20% |  |  |  |  |
| Cc1cccc(-n2nnn(C)c2=O)c1COc1ccn(-c2ccc(Cl)cc2)n1 [Present compound 1-3, 1-(2-{[1-(4-chlorophenyl)-1H-pyrazol-3-yl]oxymethyl}-3-methylphenyl)-4-methyl-1,4-dihydrotetrazol-5-one] |  |  |  | 35% | 70% | 20% | 37% |
